From patent US20070049564A1 (Wyeth, priority 2005, published 2007)
Converted amounts (≈) assume the structure as drawn. Where two headings read alike, the source gives them in different places.

Assays:
S. aureus GC 6467 = test: MIC, broth microdilution; settings: Staphylococcus aureus, GC6467, S. aureus GC 6467
E. coli GC 2236 = test: MIC, broth microdilution; settings: Escherichia coli, GC2236, E. coli GC 2236
E. faecalis GC 2242 = test: MIC, broth microdilution; settings: Enterococcus faecalis, GC2242, E. faecalis GC 2242
E. coli GC 4559 = test: MIC, broth microdilution; settings: Escherichia coli, GC4559, E. coli GC 4559
E. faecalis GC 4555 = test: MIC, broth microdilution; settings: Enterococcus faecalis, GC4555, E. faecalis GC 4555
S. aureus GC 6469 = test: MIC, broth microdilution; settings: Staphylococcus aureus, GC6469, S. aureus GC 6469
E. coli GC 2271 = test: MIC, broth microdilution; settings: Escherichia coli, GC2271, E. coli GC 2271
P. aeruginosa GC 2214 = test: MIC, broth microdilution; settings: Pseudomonas aeruginosa, GC2214, P. aeruginosa GC 2214
E. coli GC 1073 = test: MIC, broth microdilution; settings: Escherichia coli, GC1073, E. coli GC 1073
E. faecalis GC 2265 = test: MIC, broth microdilution; settings: Enterococcus faecalis, GC2265, E. faecalis GC 2265
E. coli GC 4560 = test: MIC, broth microdilution; settings: Escherichia coli, GC4560, E. coli GC 4560
Experimental: Antimicrobial susceptibility testing. The in vitro activities of the antibiotics are determined by the broth microdilution method as recommended by the National Committee for Clinical Laboratory Standards (NCCLS) (1). Mueller-Hinton II broth (MHBII)(BBL Cockeysville, Md.) is the medium employed in the testing procedures. Microtiter plates containing serial dilutions of each antimicrobial agent are inoculated with each organism to yield the appropriate density (10^5 CFU/ml) in a 100 μl final volume. The plates are incubated for 18-22 hours at 35° C. in ambient air.
Representative compounds were first incubated in mouse serum for an hour prior to the in vitro testing against a panel of selected gram-positive and gram-negative bacteria strains. All compounds were also pre-incubated in water for an hour prior to testing as control. Representative compounds of Formula I were incubated in human serum prior to MIC determination.

E. coli = test: Range of MIC for E. coli strains; settings: Escherichia coli
E. coli GC 6465 = test: MIC, broth microdilution; settings: Escherichia coli, GC6465, E. coli GC 6465
Staph. = test: Range of MIC for Staph. strains, including MRSA; settings: Staphylococcus aureus, MRSA
E. coli GC 2203 = test: MIC, broth microdilution; settings: Escherichia coli, GC2203, E. coli GC 2203
S. aureus GC 4536 = test: MIC, broth microdilution; settings: Staphylococcus aureus, GC4536, S. aureus GC 4536
E. coli GC 2235 = test: MIC, broth microdilution; settings: Escherichia coli, GC2235, E. coli GC 2235
S. agalactiae GC 4564 = test: MIC, broth microdilution
E. coli GC 2233 = test: MIC, broth microdilution; settings: Escherichia coli, GC2233, E. coli GC 2233
E. coli GC 2270 = test: MIC, broth microdilution; settings: Escherichia coli, GC2270, E. coli GC 2270
[1] = 20 h, read-out: Range of MIC, E. coli (Mouse Serum)
[2] = read-out: Minimum inhibitory concentration (MIC), E. coli (mouse serum)
[3] = read-out: Minimum inhibitory concentration (MIC), E. coli (water)
[4] = read-out: Range of MIC, E. coli (Water)
[5] = read-out: Minimum inhibitory concentration (MIC), Staph. (mouse serum)
[6] = read-out: Minimum inhibitory concentration (MIC), Staph. (water)
[7] = read-out: Range of MIC, Staph (Mouse Serum)
[8] = read-out: Range of MIC, Staph (Water)

Work on CCCCN(CC(=O)Nc1cc(N(C)C)c2c(c1O)C(=O)C1=C(O)[C@]3(O)C(=O)C(C(N)=O)=C(O)[C@@H](N(C)C)[C@@H]3C[C@@H]1C2)C(=O)OCOC(=O)Cc1ccccc1 [Example 12, ({[(2-{[(5aR,6aS,7S,10aS)-9-(aminocarbonyl)-4,7-bis(dimethylamino)-1,8,10a,11-tetrahydroxy-10,12-dioxo-5,5a,6,6a,7,10,10a,12-octahydrotetracen-2-yl]amino}-2-oxoethyl)(butyl)amino]carbonyl}oxy)methyl phenylacetate] yielded an MIC (S. aureus GC 6467; Mouse Serum pre-incubation) of 4 mg/L (≈ 5.14 µM), an MIC (S. aureus GC 6467; Water pre-incubation) of 16 mg/L (≈ 20.6 µM) and an MIC (E. coli GC 2236; Mouse Serum pre-incubation) of 1 mg/L (≈ 1.29 µM). For the same molecule, the MIC (E. coli GC 2236; Water pre-incubation) was 16 mg/L (≈ 20.6 µM), the MIC (E. faecalis GC 2242; Mouse Serum pre-incubation) was 2 mg/L (≈ 2.57 µM) and the MIC (E. faecalis GC 2242; Water pre-incubation) was 4 mg/L (≈ 5.14 µM). It also gave an MIC (E. coli GC 4559; Mouse Serum pre-incubation) of 1 mg/L (≈ 1.29 µM), an MIC (E. coli GC 4559; Water pre-incubation) of 64 mg/L (≈ 82.3 µM) and an MIC (E. faecalis GC 4555; Mouse Serum pre-incubation) of 0.5 mg/L (≈ 0.643 µM). For the same molecule, the MIC (E. faecalis GC 4555; Water pre-incubation) was 4 mg/L (≈ 5.14 µM), the MIC (S. aureus GC 6469; Mouse Serum pre-incubation) was 4 mg/L (≈ 5.14 µM) and the MIC (S. aureus GC 6469; Water pre-incubation) was 16 mg/L (≈ 20.6 µM). It also gave an MIC (E. coli GC 2271; Mouse Serum pre-incubation) of 0.5 mg/L (≈ 0.643 µM), an MIC (E. coli GC 2271; Water pre-incubation) of 16 mg/L (≈ 20.6 µM) and an MIC (P. aeruginosa GC 2214; Mouse Serum pre-incubation) of 32 mg/L (≈ 41.1 µM). For the same molecule, the MIC (P. aeruginosa GC 2214; Water pre-incubation) was > 64 mg/L, the MIC (E. coli GC 1073; Mouse Serum pre-incubation) was 1 mg/L (≈ 1.29 µM) and the MIC (E. coli GC 1073; Water pre-incubation) was 64 mg/L (≈ 82.3 µM). For the same molecule, the MIC (E. faecalis GC 2265; Mouse Serum pre-incubation) was 2 mg/L (≈ 2.57 µM), the MIC (E. faecalis GC 2265; Water pre-incubation) was 8 mg/L (≈ 10.3 µM) and the MIC (E. coli GC 4560; Mouse Serum pre-incubation) was 0.25 mg/L (≈ 0.321 µM). For the same molecule, the MIC (E. coli GC 4560; Water pre-incubation) was 1 mg/L (≈ 1.29 µM), the MIC (E. coli; [1]) was 0.5 to 2 mg/L (≈ 0.643 to 2.57 µM) and the MIC (E. coli; [2]) was 0.5 to 2 mg/L (≈ 0.643 to 2.57 µM). It also gave an MIC (E. coli; [3]) of 16 to 64 mg/L (≈ 20.6 to 82.3 µM), an MIC (E. coli; [4]) of 16 to 64 mg/L (≈ 20.6 to 82.3 µM) and an MIC (E. coli GC 6465; Mouse Serum pre-incubation) of 8 mg/L (≈ 10.3 µM). For the same molecule, the MIC (E. coli GC 6465; Water pre-incubation) was > 64 mg/L, the MIC (Staph.; [5]) was 0.5 to 4 mg/L (≈ 0.643 to 5.14 µM) and the MIC (Staph.; [6]) was 1 to 16 mg/L (≈ 1.29 to 20.6 µM). It also gave an MIC (Staph.; [7]) of 0.5 to 4 mg/L (≈ 0.643 to 5.14 µM), an MIC (Staph.; [8]) of 1 to 16 mg/L (≈ 1.29 to 20.6 µM) and an MIC (E. coli GC 2203; Mouse Serum pre-incubation) of 1 mg/L (≈ 1.29 µM). For the same molecule, the MIC (E. coli GC 2203; Water pre-incubation) was 32 mg/L (≈ 41.1 µM), the MIC (S. aureus GC 4536; Mouse Serum pre-incubation) was 1 mg/L (≈ 1.29 µM) and the MIC (S. aureus GC 4536; Water pre-incubation) was 2 mg/L (≈ 2.57 µM). For the same molecule, the MIC (E. coli GC 2235; Mouse Serum pre-incubation) was 1 mg/L (≈ 1.29 µM), the MIC (E. coli GC 2235; Water pre-incubation) was 16 mg/L (≈ 20.6 µM) and the MIC (S. agalactiae GC 4564; S. agalactiae GC 4564, Water pre-incubation) was 0.25 UG/ML. The MIC (S. agalactiae GC 4564; Streptococcus agalactiae, GC4564) was 0.25 mg/L (≈ 0.321 µM), the MIC (E. coli GC 2233; Mouse Serum pre-incubation) was 1 mg/L (≈ 1.29 µM) and the MIC (E. coli GC 2233; Water pre-incubation) was 32 mg/L (≈ 41.1 µM). For the same molecule, the MIC (E. coli GC 2270; Mouse Serum pre-incubation) was 0.5 mg/L (≈ 0.643 µM) and the MIC (E. coli GC 2270; Water pre-incubation) was 32 mg/L (≈ 41.1 µM).

Molecule CCCCN(CC(=O)Nc1cc(N(C)C)c2c(c1O)C(=O)C1=C(O)[C@]3(O)C(=O)C(C(N)=O)=C(O)[C@@H](N(C)C)[C@@H]3C[C@@H]1C2)C(=O)OCOC(=O)C(C)(C)C [Example 13, ({[(2-{[(5aR,6aS,7S,10aS)-9-(aminocarbonyl)-4,7-bis(dimethylamino)-1,8,10a,11-tetrahydroxy-10,12-dioxo-5,5a,6,6a,7,10,10a,12-octahydrotetracen-2-yl]amino}-2-oxoethyl)(butyl)amino]carbonyl}oxy)methyl pivalate] has an MIC (S. aureus GC 6467; Mouse Serum pre-incubation) of 4 mg/L (≈ 5.38 µM), an MIC (S. aureus GC 6467; Water pre-incubation) of 8 mg/L (≈ 10.8 µM) and an MIC (E. coli GC 2236; Mouse Serum pre-incubation) of 2 mg/L (≈ 2.69 µM). The MIC (E. coli GC 2236; Water pre-incubation) was 8 mg/L (≈ 10.8 µM), the MIC (E. faecalis GC 2242; Mouse Serum pre-incubation) was 4 mg/L (≈ 5.38 µM) and the MIC (E. faecalis GC 2242; Water pre-incubation) was 8 mg/L (≈ 10.8 µM). For the same molecule, the MIC (E. coli GC 4559; Mouse Serum pre-incubation) was 4 mg/L (≈ 5.38 µM), the MIC (E. coli GC 4559; Water pre-incubation) was 16 mg/L (≈ 21.5 µM) and the MIC (E. faecalis GC 4555; Mouse Serum pre-incubation) was 2 mg/L (≈ 2.69 µM). The MIC (E. faecalis GC 4555; Water pre-incubation) was 4 mg/L (≈ 5.38 µM), the MIC (S. aureus GC 6469; Mouse Serum pre-incubation) was 4 mg/L (≈ 5.38 µM) and the MIC (S. aureus GC 6469; Water pre-incubation) was 8 mg/L (≈ 10.8 µM). It also gave an MIC (E. coli GC 2271; Mouse Serum pre-incubation) of 2 mg/L (≈ 2.69 µM), an MIC (E. coli GC 2271; Water pre-incubation) of 8 mg/L (≈ 10.8 µM) and an MIC (P. aeruginosa GC 2214; Mouse Serum pre-incubation) of 32 mg/L (≈ 43 µM). For the same molecule, the MIC (P. aeruginosa GC 2214; Water pre-incubation) was > 64 mg/L, the MIC (E. coli GC 1073; Mouse Serum pre-incubation) was 2 mg/L (≈ 2.69 µM) and the MIC (E. coli GC 1073; Water pre-incubation) was 16 mg/L (≈ 21.5 µM). The MIC (E. faecalis GC 2265; Mouse Serum pre-incubation) was 4 mg/L (≈ 5.38 µM), the MIC (E. faecalis GC 2265; Water pre-incubation) was 8 mg/L (≈ 10.8 µM) and the MIC (E. coli GC 4560; Mouse Serum pre-incubation) was 1 mg/L (≈ 1.34 µM). The MIC (E. coli GC 4560; Water pre-incubation) was 4 mg/L (≈ 5.38 µM), the MIC (E. coli; [1]) was 1 to 4 mg/L (≈ 1.34 to 5.38 µM) and the MIC (E. coli; [2]) was 1 to 4 mg/L (≈ 1.34 to 5.38 µM). It also gave an MIC (E. coli; [3]) of 8 to 16 mg/L (≈ 10.8 to 21.5 µM), an MIC (E. coli; [4]) of 8 to 16 mg/L (≈ 10.8 to 21.5 µM) and an MIC (E. coli GC 6465; Mouse Serum pre-incubation) of 8 mg/L (≈ 10.8 µM). The MIC (E. coli GC 6465; Water pre-incubation) was > 64 mg/L, the MIC (Staph.; [5]) was 1 to 4 mg/L (≈ 1.34 to 5.38 µM) and the MIC (Staph.; [6]) was 2 to 8 mg/L (≈ 2.69 to 10.8 µM). The MIC (Staph.; [7]) was 1 to 4 mg/L (≈ 1.34 to 5.38 µM), the MIC (Staph.; [8]) was 2 to 8 mg/L (≈ 2.69 to 10.8 µM) and the MIC (E. coli GC 2203; Mouse Serum pre-incubation) was 2 mg/L (≈ 2.69 µM). The MIC (E. coli GC 2203; Water pre-incubation) was 8 mg/L (≈ 10.8 µM), the MIC (S. aureus GC 4536; Mouse Serum pre-incubation) was 1 mg/L (≈ 1.34 µM) and the MIC (S. aureus GC 4536; Water pre-incubation) was 2 mg/L (≈ 2.69 µM). It also gave an MIC (E. coli GC 2235; Mouse Serum pre-incubation) of 2 mg/L (≈ 2.69 µM), an MIC (E. coli GC 2235; Water pre-incubation) of 8 mg/L (≈ 10.8 µM) and an MIC (S. agalactiae GC 4564; Streptococcus agalactiae, GC4564, S. agalactiae GC 4564, Mouse Serum pre-incubation) of 1 mg/L (≈ 1.34 µM). The MIC (S. agalactiae GC 4564; Streptococcus agalactiae, GC4564, S. agalactiae GC 4564, Water pre-incubation) was 2 mg/L (≈ 2.69 µM), the MIC (E. coli GC 2233; Mouse Serum pre-incubation) was 2 mg/L (≈ 2.69 µM) and the MIC (E. coli GC 2233; Water pre-incubation) was 8 mg/L (≈ 10.8 µM). The MIC (E. coli GC 2270; Mouse Serum pre-incubation) was 1 mg/L (≈ 1.34 µM) and the MIC (E. coli GC 2270; Water pre-incubation) was 8 mg/L (≈ 10.8 µM).
